Data: patent US10662138B2, “Herbicidal propynyl-phenyl compounds” (Syngenta Participations AG, priority 2014, dated 2020)

Experiments:
Assay type in all cases: in vivo
[1] = test system: Zea mays (corn, maize, e.g. volunteer corn); test: Glasshouse assay for herbicidal activity, post-emergence, ZEAMX; details: Zea mays, 312 h, 250 g/ha, visual 13 days after application, 100%=total damage, read-out: Percentage phytotoxicity ZEAMX
Method: (§1) Seeds of a variety of test plant species were sown in standard soil ** in pots. After cultivation for one day (pre-emergence) or after 8 days cultivation (post-emergence) under controlled conditions in a glasshouse (at 24/16° C., day/night; 14 hours light; 65% humidity), the plants were sprayed with an aqueous spray solution derived from the formulation of the technical active ingredient (the test herbicide) in acetone/water (50:50) solution containing 0.5% Tween 20 (polyoxyethylene sorbitan monolaurate, CAS Reg. No. 9005-64-5). The test plants were then grown on under controlled conditions in a glasshouse (at 24/16° C., day/night; 14 hours light; 65% humidity) and watered twice daily. 13 Days after application of the test herbicide, for pre- and post-emergence, the test was evaluated visually for percentage phytotoxicity to each plant (where 100%=total damage to plant; 0%=no damage to plant). Generally, each test herbicide is only tested on 1 plant per plant species for each application rate tested and for each application timing. The “standard soil” in Biological Example 1 is usually a “sand” or “sandy loam” type of soil. Biological Example 1—Post-Emergence Application—Herbicidal Activity Results (Percentage Phytotoxicity) Dicotyledonous weeds: ABUTH=Abutilon theophrasti; AMARE=Amaranthus retroflexus. Grassy monocotyledonous weeds: SETFA=Setaria faberi; ALOMY=Alopecurus myosuroides; ECHCG=Echinochloa crus-galli; ZEAMX=Zea mays (corn, maize, e.g. volunteer corn).

Alopecurus myosuroides = test: Glasshouse assay for herbicidal activity, post-emergence, ALOMY; details: Alopecurus myosuroides, 312 h, 250 g/ha, visual 13 days after application, 100%=total damage, read-out: Percentage phytotoxicity ALOMY
Method: as §1

Echinochloa crus-galli = test: Glasshouse assay for herbicidal activity, post-emergence, ECHCG; details: Echinochloa crus-galli, 312 h, 250 g/ha, visual 13 days after application, 100%=total damage, read-out: Percentage phytotoxicity ECHCG
Method: as §1

Abutilon theophrasti = test: Glasshouse assay for herbicidal activity, post-emergence, ABUTH; details: Abutilon theophrasti, 312 h, 250 g/ha, visual 13 days after application, 100%=total damage, read-out: Percentage phytotoxicity ABUTH
Method: as §1

Amaranthus retroflexus = test: Glasshouse assay for herbicidal activity, post-emergence, AMARE; details: Amaranthus retroflexus, 312 h, 250 g/ha, visual 13 days after application, 100%=total damage, read-out: Percentage phytotoxicity AMARE
Method: as §1

Setaria faberi = test: Glasshouse assay for herbicidal activity, post-emergence, SETFA; details: Setaria faberi, 312 h, 250 g/ha, visual 13 days after application, 100%=total damage, read-out: Percentage phytotoxicity SETFA
Method: as §1

Structure (SMILES)	pest or weed control at 250 g/ha [1]	pest or weed control at 250 g/ha (Alopecurus myosuroides)	pest or weed control at 250 g/ha (Echinochloa crus-galli)	pest or weed control at 250 g/ha (Abutilon theophrasti)	pest or weed control at 250 g/ha (Amaranthus retroflexus)	pest or weed control at 250 g/ha (Setaria faberi)
CC#Cc1ccc(C2=C(OC(=O)SCC)C3CCC(C3)C2=O)c(OC)c1 (stereo not drawn) [Compound P14]	100%	90%	100%	70%	20%	100%
CC#Cc1ccc(C2=C(OC(=O)SC(C)C)C3CCC(C3)C2=O)c(OC)c1 (stereo not drawn) [Compound P15]	100%	90%	100%	70%	10%	100%
CC#Cc1ccc(C2=C(OS(C)(=O)=O)C3CCC(C3)C2=O)c(OC)c1 (stereo not drawn) [Compound P16]	100%	80%	90%	40%	40%	70%
CC#Cc1ccc(C2=C(OS(=O)(=O)CC)C3CCC(C3)C2=O)c(OC)c1 (stereo not drawn) [Compound P17]	100%	90%	90%	70%	0%	80%
C=CC(=O)OC1=C(c2ccc(C#CC)cc2OC)C(=O)C2CCC1C2 (stereo not drawn) [Compound P18]	100%	90%	100%	70%	30%	90%
